Literature values in PMC11258486, “Phase 1 dose escalation study of the MDM2 inhibitor milademetan as monotherapy and in combination with azacitidine in patients with myeloid malignancies” (Cancer Medicine, 2024).

Assays:
[1] = system: AML; set-up: method as in PMID 26459177; details: phase 1 clinical study in AML; cited from earlier work
[2] = system: relapsed/refractory AML; set-up: method as in PMID 35413116; details: relapsed/refractory AML and wild‐type p53; cited from earlier work

Row | SMILES | response rate [1] | overall response rate [2]
1 | CCOc1cc(C(C)(C)C)ccc1C1=N[C@@](C)(c2ccc(Cl)cc2)[C@@](C)(c2ccc(Cl)cc2)N1C(=O)N1CCN(CCCS(C)(=O)=O)CC1 [RG7112] | ~ 25% | –
2 | Nc1ccn([C@@H]2O[C@H](CO)[C@@H](O)[C@@H]2O)c(=O)n1 [cytarabine] | – | 22%
